Test: Polymer degradation and in vitro 5-FU release from hollow fibres in PBS pH 7.4
Type: physicochemical
Details: FIG. 30
Description: 0.07 g of each hollow fibre was weighed and immersed in 20 ml of de-ionised water in a screw-topped bottle. These were then placed on an orbital shaker maintained at a temperature of 37° C. The pH of the degradation medium was measured every two days to monitor the rate of generation of acidic byproducts. A Jenway (Model 3051) pH meter was used for this purpose.
In vitro drug release studies were carried out in phosphate buffer saline (PBS) at both room temperature (˜25° C.) and 37° C. PBS solution was applied to keep the degrading system at a constant pH 7.4 value. Every type of polymer fibre was cut into 10 pieces, with 5 cm each. At room temperature, each fibre piece was first sealed at one end with bio-adhesive, and was injected with liquid 5-FU with a syringe pump from the other open end before it was sealed. […] The amount of drug release was measured every 24 hours within the 3 months. The quantitative measurement of the amount of drug released was measured with a UV Spectrometer. A calibration curve was performed as the concentration versus absorbance for the drug in buffer (wavelength of absorption, □=266 nm (5-FU) and λ=298 nm (cisplatin and carboplatin) or atomic absorption spectroscopy) which was plotted in a logarithmic scale gave a straight line. […] The absorbance of the drug was noted. […]

For `O=c1[nH]cc(F)c(=O)[nH]1` [5-FU, fluorouracil], the “effect on degradation and drug release rate of polymer hollow fibres” value was “accelerates the degradation and drug release rate”.

— patent US20090220612A1, “HOLLOW-FIBRE-BASED BIOCOMPATIBLE DRUG DELIVERY DEVICE WITH ONE OR MORE LAYERS” (priority 2005, published 2009)
